Data on two compounds can be found in patent US20120142109A1, “METHOD FOR PRODUCING T CELL POPULATION UNDER PRESENCE OF RETINOIC ACID” (priority 2009, published 2012).

Holding throughout (format): cell-based, human
Data set [1] relates to T2A24 cell pulsed with MAGE-A4. Kind of data set: Specific cytotoxic activity of gene-transferred cells, Calcein release.
Description: Analysis of cytotoxicity of the gene-transferred cell on a MAGE-A4-derived peptide p143 was carried out. […] The suspension was cultured at 37° C. for 1 hour. The cells were washed with a medium not containing Calcein-AM, and mixed with a 10-fold amount of K562 cells (ATCC CCL-243) to prepare Calcein-labeled target cells. The K562 cells were used in order to exclude nonspecific cytotoxic activity due to NK cells commingling with responder cells. The cells on the 10th day after initiation of culture as effector cells were stepwisely diluted with a RPMI 1640 medium containing 10% FBS so as to be 1×10^5 to 1×10^6 cells/mL. Then, 100 μL/well of the dilution was dispended into each well of a 96-well cell culture plate. The Calcein-labeled target cells were adjusted to 1×10^5/mL and added to the wells at 100 μL/well. […] From the each well, 100 μL of the culture supernatant was removed, and the amount of Calcein released into the culture supernatant was measured with a fluorescent plate reader (485 nm/538 nm). “Specific cytotoxic activity (%)” was calculated according to the following mathematical formula 1.
Specific cytotoxic activity(%)=[{(measured value of each well)−(minimum released amount)}/{(maximum released amount)−(minimum released amount)}]×100 [Mathematical formula 1] […]
Another data set concerns gene-transferred cell. Kind of data set: Provirus copy number of the transferred gene. To be noted: Example 3, FIG. 11; ZsGreen gene, virus-bound plate; 10 nM retinoic acid; 7th day. How it is done: The provirus copy number of the transferred gene in the gene-transferred cell was measured with Provirus Copy Number Detection Primer Set. Human (manufactured by TAKARA BIO INC.). In FIG. 6, the ordinate axis indicates the copy number of the transferred gene in a gene-transferred cell. As a result, the copy number was increased by a combination of stimulation by an anti-CD3 antibody alone or fibronectin fragment/anti-CD3 antibody stimulation with addition of retinoic acid, and the increase of the copy number correlated with increase in gene transfer efficiency.
The results of measurement of the copy number of the transferred gene in the gene-transferred cell into which the gene was transferred using the virus-bound plate for gene transfer are shown in FIG. 11. In FIG. 11, the ordinate axis indicates the copy number of the transferred gene in the gene-transferred cell. As a result, the copy number under the combination condition of stimulation by an anti-CD3 antibody alone or fibronectin fragment/anti-CD3 antibody stimulation with addition of retinoic acid was about 2 times the copy number under the condition of no addition of retinoic acid. The copy number correlated with gene transfer efficiency.
The provirus copy number of the transferred gene in the cultured cells was measured using Provirus Copy Number Detection Primer Set. Human (manufactured by TAKARA BIO INC.). […]

Data set [2] relates to CD8 single positive and CD4 single positive cells. Kind of data set: Proportion of ZsGreen positive cells by flow cytometry. To be noted: Example 3, FIG. 9; gene transfer using virus-bound (fibronectin fragment) plate; 10 nM retinoic acid; 7th day.
Description: A gene transfer operation was carried out as follows. […] The plate was cultured at 37° C. for 4 hours in a CO2 incubator. The cells after culturing were suspended at 0.1×10^6 cells/mL in a GT-T503 medium containing 1% autologous plasma, 720 IU/mL IL-2, 0.2% HSA, 2.5 μg/mL Fungizone and 10 nM retinoic acid. The resulting suspension was seeded on a 12-well plate, and cultured at 37° C. for 3 days. At the same time, a gene transfer operation and cell culture after gene transfer were similarly carried out using a cell suspension not containing retinoic acid as a control.
Regarding gene transfer using a virus-bound plate for gene transfer, the cell growth rate was measured on the 4th and 7th days, and cell surface markers, the proportion of ZsGreen positive cells and the copy number of a transferred gene were measured on the 7th day.
After initiation of stimulation of the PBMC, the cells on the 7th day in the case of gene transfer using the virus-bound plate for gene transfer, and the cells on the 6th day in the case of gene transfer by a polybrene method were reacted with a PE-Cy7-labeled anti-human CD4 antibody or an APC-Cy7-labeled anti-human CD8 antibody (manufactured by Becton Dickinson) at 4° C. for 20 minutes, washed and, then subjected to flow cytometry analysis using FACScant (manufactured by Becton Dickinson).
In the next data set the test system is PBMC. Kind of data set: Cell growth rate relative to cell number at initiation of culture. To be noted: Example 2, FIG. 2; fibronectin fragment/anti-CD3 antibody stimulation compared with anti-CD3 antibody alone, regardless of presence or absence of retinoic acid. As to the method:
A PBMC prepared from a healthy person from whom informed consent had been obtained was suspended at 0.18×10^6 cells/mL in a GT-T503 medium containing 1% autologous plasma, 720 IU/mL IL-2, 0.2% HSA, 2.5 μg/mL Fungizone and 10 nM retinoic acid. The suspension was added to the fibronectin fragment/anti-CD3 antibody-adherent plate or the anti-CD3 antibody-adherent plate at 2.65 mL/well. As controls, a cell suspension not containing retinoic acid was added to the plates. Each plate was cultured at 37° C. for 4 days in a CO2 incubator.
A gene transfer operation was carried out as follows. The PBMC which had been stimulated with an anti-CD3 antibody alone or a fibronectin fragment/an anti-CD3 antibody for 4 days was added to the virus-bound plate at 0.8×10^6 cells/2.0 mL/well. This plate was cultured at 37° C. overnight in a CO2 incubator. […]
On the 7th day after initiation of stimulation of the PBMC, the cell was seeded at 0.1×10^6 cells/mL, and cultured until the 10th day. The cell growth rate was measured on the 4th, 5th, 7th and 10th days. On the 4th day, cell surface markers before the cell was transferred to the virus-bound plate were measured. On the 10th day, cell surface markers, expression of a transferred TCR and the copy number of a transferred gene were measured. […]

For `CC1=C(/C=C/C(C)=C/C=C/C(C)=C/C(=O)O)C(C)(C)CCC1` [retinoic acid], the “cytotoxic activity on the specific target cells” value in data set [1] (Example 4, FIG. 15, retinoic acid stimulation group vs absence, cells on 10th day, each E/T ratio) is recorded as “high”; in data set [1] (Example 5, FIG. 22, RR, OR and R- groups vs O-, E/T 1:1, cells on 11th day), “higher”. Moreover, in the data set with gene-transferred cell, the “copy number of the transferred gene relative to no addition of retinoic acid” value was “about 2 times”. Besides, the “increase of proportion of ZsGreen positive cells as compared with no addition of retinoic acid” value in data set [2] is listed as 1.5 fold.

“fibronectin fragment: recombinant fibronectin fragment CH-296, commercially available as RetroNectin (TAKARA BIO INC.)”: the cell growth rate result in the data set with PBMC is reported as “higher”.
